In assay [1] the test system is Tac2-expressing neurons in the CeA. The assay can be described thus: Gi-DREADD silencing of Tac2-expressing CeA neurons with CNO, fear conditioning and elevated plus maze. In kind it is in vivo, mice. The procedure:
Tac2-Cre^− or Tac2-Cre^+ mice were infected with the hM4Di-mCherry AAV in the CeA. The Gi receptor was inserted only on the Tac2-Cre cells of Tac2-Cre+mice, CeM=centro-medial amygdala, CeL=centro-lateral amygdala. CNO was given systemically 30 minutes prior to fear conditioning to Tac2-Cre-/hM4Di-mCherry and Tac2 Cre+/hM4DimCherry. […] Tac2-Cre-/hM4DimCherry vs Tac2-Cre+/hM4Di-mCherry. Tac2-Cre-/hM4Di-mCherry and Tac2-Cre+/hM4Di-mCherry mice were retrained to a different acoustic tone (CS) without receiving CNO.
To further understand the role of the Tac2 gene, the activity of neurons expressing this gene in the CeA were temporarily silenced during fear learning using designer receptors exclusively activated by designer drugs (DREADD) technology. The B6.129-Tac2tm1.1(cre) Qima/J (Tac2-cre) (Mar et al., Mol. Brain, 2012, 5, 3) mice were infected with a DREADD Gi-coupled receptor via the pAAV-hSyn-double floxed hM4D-mCherry virus (hM4Di-mCherry AAV). […] 14 days later, clozapine-N-oxide (CNO), which binds to the inserted receptor but otherwise is pharmacologically inert, was given systemically 30 minutes before FC in both groups, Tac2-Cre-/hM4Di-mCherry and Tac2-Cre+/hM4Di-mCherry. CNO had no effect on fear acquisition as shown by equivalent amount of freezing in both groups (FIG. 5A). […] Mice were then retrained with a different CS and a different context in the same FC apparatus, as in previous experiments but without dosing CNO.

Assay [2] concerns mice. The experiment in a line: Fear conditioning in mice with LV-Tac2 or LV-GFP infused in the central amygdala, systemic osanetant. To be noted: systemic immediately after FC, tested 24 hours later. In kind it is in vivo. The text has this: The lentivirus GFP-FUGW induces GFP expression but not Neurokinin B (NkB) in Hek293 cells. […] Tac2-FUGW or GFP-FUGW were bilaterally infused in the central amygdala and mice were left undisturbed for 14 days.
The lentiviruses GFP-FUGW and Tac2-FUGW causes no changes in fear conditioning. Osanetant or vehicle were given systemically immediately after fear acquisition.
A viral vector was developed to overexpress the Tac2 gene in an inducible fashion within the brain, the lentivirus-Tac2 (LV-Tac2). […] The behavioral effects of Tac2 overexpression was examined in mice. […] Mice infected with the LVTac2 or LV-GFP received systemic osanetant or vehicle immediately after FC, and then fear expression was tested 24 hours later. Specific CeA-Tac2 overexpression elicited a significant enhancement of fear memory consolidation. […] Additionally, the enhanced fear memory consolidation caused by CeA-Tac2 overexpression was reversed by osanetant (Post-hoc, **P≤0.01 vs LV-Tac2-Osa and LV-GFP-Osa FIG. 4D).

Assay [3] has as its system Pac1 receptor (Adcyap1r1). The experiment in a line: Adcyap1r1 (PAC1 receptor) mRNA levels in the amygdala after fear conditioning. The format is in vivo, mice. Conditions: intraperitoneally 30 minutes before fear conditioning, vs Veh-FC. The text has this:
The PACAP-PAC1R pathway is associated with PTSD, fear conditioning and stress.
(§1) Recently, the PACAP-PAC1R pathway has been associated with PTSD in humans as well as in animal models. (See Stevens et al., 2014).

Assay [4] concerns mice. The experiment in a line: Auditory cued fear conditioning and fear expression test, systemic osanetant. In kind it is in vivo. To be noted: dosed from 30 min before FC up to 1 hour after training; for fear memory consolidation, freezing in the fear expression test: vs vehicle.
The test system of a further assay is guinea-pigs. Conditions: cited from earlier work.
The next assay concerns the target T1, Nk3R (Mus musculus, UniProt P47937).
T1 construct: endogenous in cells; host or cells: mouse amygdala cell culture (primary)
T1 sequence (P47937 1-452): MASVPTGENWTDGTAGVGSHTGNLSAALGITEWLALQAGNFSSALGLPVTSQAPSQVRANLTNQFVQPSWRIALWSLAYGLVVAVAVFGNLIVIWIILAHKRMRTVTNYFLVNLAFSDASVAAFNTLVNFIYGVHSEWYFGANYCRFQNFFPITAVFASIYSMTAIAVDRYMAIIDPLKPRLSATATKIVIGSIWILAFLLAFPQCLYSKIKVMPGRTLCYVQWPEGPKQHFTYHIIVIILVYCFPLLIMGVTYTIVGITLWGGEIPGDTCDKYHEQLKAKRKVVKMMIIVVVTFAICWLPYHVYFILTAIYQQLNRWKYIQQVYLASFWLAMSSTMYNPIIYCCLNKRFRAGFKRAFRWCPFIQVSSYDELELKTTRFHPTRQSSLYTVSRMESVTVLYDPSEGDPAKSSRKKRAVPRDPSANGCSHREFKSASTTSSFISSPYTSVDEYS
The assay can be described thus: Amygdala cell culture incubated with osanetant, Nk3R mRNA levels. In kind it is cell-based. To be noted: incubation with 20 μg and 40 μg of osanetant, vs Veh. The source says:
Moreover, NkB peptide is also highly expressed in the CeA. […] The Nk3R antagonist osanetant has already been used in humans in clinical trials for schizophrenia.

The test system of assay [5] is mice. The experiment in a line: Elevated plus maze, systemic osanetant 30 minutes before. The format is in vivo. To be noted: 30 minutes before elevated plus maze. The procedure:
(§2) Different cohorts of mice received systemic osanetant 30 minutes before open field, elevated plus maze or fear conditioning in the startle chamber.
FIG. 6C time in open arms,
FIG. 6D entries in open arms, and
FIG. 6E time in closed arms in the elevated plus maze.
(§3) The above studies indicate that osanetant would target the Nk3R in the amygdale in vivo. Osanetant given systemically, 30 minutes before open field, elevated plus maze and the conditioning chamber elicits no changes in anxiety-like behavior, locomotor activity or electric shock reactivity.

Assay [6] has as its system mice. The experiment in a line: Open field, systemic osanetant 30 minutes before. In kind it is in vivo. To be noted: 30 minutes before open field. How it is done:
as §2, §3

For assay [7], the system named is mice. The experiment in a line: Shock reactivity in the startle chamber. In kind it is in vivo. To be noted: systemic, 30 minutes before testing in the startle chamber. How it is done:
as §2, §3

The test system of another assay is IMO treated mice. The experiment in a line: Fear conditioning after immobilization to a wooden board (IMO), PTSD-like model. In kind it is in vivo. Conditions: systemic immediately after FC. The procedure:
Veh=vehicle; Osa=osanetant.
Mice exposed for 2 hours to a severe one-time stressor, immobilization to a wooden board (IMO), present long-term PTSD-like symptoms: impaired fear extinction and spatial memory, and enhanced anxiety-like behaviors. Additionally, IMO in rats elicits alterations of the hypothalamic-pituitary-adrenal (HPA) axis which may be similar to the process initiating PTSD in humans.

In a further assay the target is T2, CeA-NK3R (Mus musculus, UniProt P47937).
T2 construct: from tissue; host or cells: central amygdala of living mice (in vivo infusion)
T2 sequence (P47937 1-452): T1 sequence (P47937 1-452)
The experiment in a line: Osanetant bilaterally injected into the central amygdala, cued-fear expression test. The format is in vivo, mice. To be noted: bilateral infusion in the CeA immediately after fear conditioning; vs vehicle.
Description: as §1

Entries after “also recorded” stand apart in the source; their conditions may differ.

Take `C[N+]1([O-])CCN(C2=Nc3cc(Cl)ccc3Nc3ccccc32)CC1` [CNO, clozapine-N-oxide]: the “anxiety-like behavior, elevated plus maze” value in assay [1] (CNO 30 minutes before, both Tac2-Cre groups) was “equivalent levels; also recorded: no effect”. In addition, the “fear acquisition, freezing” value in [1] (CNO systemically 30 minutes before FC, Tac2-Cre-/hM4Di-mCherry and Tac2-Cre+/hM4Di-mCherry) is recorded as “no effect; also recorded: did not affect freezing during fear acquisition”. In addition, the “fear expression, freezing 24 hrs later in the absence of CNO” value in [1] (Tac2-Cre+/hM4Di-mCherry vs Tac2-Cre-/hM4Di-mCherry, CNO 30 minutes before FC) was “less freezing; also recorded: less conditioned fear”. Also, the pain sensitivity entry in assay [1] (given CNO, both Tac2-Cre groups) is reported as “equivalent levels”.

For the molecule `CC(=O)N(C)C1(c2ccccc2)CCN(CCC[C@]2(c3ccc(Cl)c(Cl)c3)CCCN(C(=O)c3ccccc3)C2)CC1` [osanetant, (R)-N-{{3-[1-Benzoyl-3-(3,4-dichlorophenyl)piperidin-3-yl]prop-1-yl}-4-phenylpiperidin-4-yl}-N-methylacetamine], in the assay with mice [2] (LV-Tac2 mice), the “enhanced fear memory consolidation caused by CeA-Tac2 overexpression” value is reported as “reversed; also recorded: impairs this effect”. Also, the fear memory consolidation entry in the assay with mice [2] (control LV-GFP mice, vs LV-GFP-Veh) was “impaired fear memory consolidation”. Moreover, the entries for the “Adcyap1r1 (PAC1 receptor) mRNA levels in the amygdala” value in assay [3] and in assay [3] (listed as Osanetant) were “impaired the enhancement of mRNA levels” and “normalizes the levels; also recorded: prevented the up-regulation”, respectively. Further, the figures for the fear acquisition entry in the assay with mice [4] and with mice [4] (listed as Osanetant) were “does not affect fear acquisition” and “without affecting fear expression”, respectively. The “fear memory consolidation, freezing in the fear expression test” value with mice [4] is recorded as “impairs fear memory consolidation; also recorded: impairs fear learning”; in the assay on mice [4] (listed as Osanetant) it was “impairs cued-fear memory; also recorded: impairs fear memory consolidation”; with IMO treated mice, “impaired memory consolidation”; in the assay on IMO treated mice (listed as Osanetant) it was “impaired fear memory consolidation”. Also, the “substance P-induced bronchial hyperreactivity” value in the assay with guinea-pigs is “prevents”. Also, the “Nk3R mRNA levels” value on Nk3R is on record as “dose-dependent enhanced Nk3R mRNA levels; also recorded: enhances Nk3R mRNA levels; also recorded: increases Nk3R mRNA levels”. Further, the “anxiety-like behavior in the elevated plus maze (time in open arms, entries in open arms, time in closed arms)” value in the assay on mice [5] is on record as “no effects”; in the assay on mice [5] (listed as Osanetant), “no changes; also recorded: did not modified anxiety-like behavior”. Moreover, the “anxiety-like behavior, time in the center of the open field” value in the assay with mice [6] is on record as “no effects”; in the assay with mice [6] (listed as Osanetant), “no changes; also recorded: did not modified anxiety-like behavior”. In addition, the “locomotor activity, distance travelled in the open field” value is “no effects; also recorded: equivalent distance travelled” in the assay with mice [6] and “no changes” in the assay on mice [6] (listed as Osanetant). Also, the electric shock reactivity entry in the assay on mice [7] is “no effects; also recorded: Equivalent shock reactivity”; in the assay on mice [7] (listed as Osanetant), “no changes”. Further, on CeA-NK3R, the “fear memory consolidation, freezing in the cued-fear expression test” value is listed as “impaired fear memory consolidation”.
